Measurements taken from patent US11926846B2, “Hydroxyurea to enhance sperm cells” (Meharry Medical College, priority 2017, dated 2024).
Where “and” joins values, the source holds several entries; their conditions need not be identical. Identical values can stand only once.

Columns and labels:
human sperm [1] = test: Sperm motility after 24 hour culture in HTF-buffer containing HU (Working Example 1); format: cell-based; conditions: 18 μg HU/mL, 37° C.
Procedure: Human sperm was processed with HU to show enhanced motility over human sperm not processed with HU. Normal human semen was collected in 15 mL conical centrifuge tubes. Highly motile (i.e., Grade a) sperm were isolated and collected from the semen. The isolated highly motile sperm were washed in an HTF medium (HTF-HEPES; pH 7.4) containing 0.5% Bovine Serum Albumin (“BSA”) by centrifugation and suspended in bicarbonate (25 mM)-buffered HTF containing 0.5% (5 mg/ml) BSA (36; pH 7.4). Subsequently, each sperm suspension was incubated at 37° C. in an atmosphere of 5.0% CO2 in humidified air until aliquoted into the different treatment groups: a control group and a hydroxyurea processed group.
(§1) The control group was cultured in HTF-buffer containing 0 μg HU/mL at 37° C. in an atmosphere of 5.0% CO2 in humidified air for 24 hours. After the 24 hour culture, the control sperm were evaluated for pattern and degree of motility.
The hydroxyurea processed group was cultured in HTF-buffer containing 18 μg HU/mL at 37° C. in an atmosphere of 5.0% CO2 in humidified air for 24 hours. After the 24 hour culture, the hydroxyurea processed sperm were evaluated for pattern and degree of motility. […] The percentage of motile spermatozoa was calculated by multiplying the ratio of motile to 100 spermatozoa counted by 100.
The progressive motility of the control group sperm was higher (P<0.001; based on paired t-test comparison) than the progressive motility of the hydroxyurea processed group sperm. […] On the other hand, most of the sperm cells in the control buffer remained in a progressive motility state (motility pattern observed among sperm cells that have not acquired the ability to fertilize mature eggs). These findings are clinically significant, as progressive sperm motility is a determinant of ability of spermatozoa to penetrate cervical mucus on towards migration to the fertilization site (fallopian tubes), while that for hyperactive sperm motility (capacitation) is the motion pattern characteristic of spermatozoa that have attained the ability to fertilize mature eggs.

human sperm [2] = test: Overall sperm motility after 24 hour culture with HU at HIV-suppressing concentrations (Working Example 2); format: cell-based; conditions: HTF-buffer, 37° C., control 70.3
Procedure: Normal human semen was collected in 15 mL conical centrifuge tubes. Highly motile (i.e., Grade a) sperm were isolated and collected from the semen. The isolated highly motile sperm were washed in HTF medium containing 0.5% BSA (HTF-HEPES; pH 7.4) by centrifugation and suspended in bicarbonate (25 mM)-buffered HTF containing 0.5% (5 mg/ml) BSA (36; pH 7.4). Subsequently, each sperm suspension was incubated at 37° C. in an atmosphere of 5.0% CO2 in humidified air until aliquoted into the different treatment groups: a control group and a hydroxyurea processed group.
as §1
The hydroxyurea processed groups were cultured in HTF-buffer in two groups containing different concentrations of HU: (1) 1.0 mM HU and (2) 2.0 mM HU. The groups were cultured at 37° C. in an atmosphere of 5.0% CO2 in humidified air for 24 hours. After the 24 hour culture, the hydroxyurea processed sperm were evaluated for pattern and degree of motility.
Thus, it had been previously believed that HU was an unsuitable agent to suppress HIV replication and/or activation in semen, or to reduce the risk of HIV transmission, via HU treatment of reproductive cells.

[3] = system: human spermatozoa in semen samples; test: Sperm motility after cooling in freezing buffer with HU before cryopreservation (Working Example 3); format: cell-based
Procedure: (§2) Post semen analysis was conducted of discarded and de-identified semen samples from Ovation Fertility Center that met the World Health Organization (WHO) criteria for normal semen samples. Those semen samples that met the WHO criteria for normal were divided into two halves. One half was subjected to freezing with TEST-Yolk buffer (freezing buffer [FB]; Irvine Scientific, CA) containing 12% glycerol as cryoprotectant (control group). The remaining half of each sample was frozen with experimental freezing buffer composed of FB+HU (Sigma Aldridge, St. Louis; treatment group). Both control and experimental buffers were added on a 1:1 ratio to respective semen samples (v/v) in a dropwise manner. The final glycerol concentration in the semen+FB was 6%, and the final HU concentration in semen+experimental freezing buffer was 1 μM to use a concentration of HU that is effective in inhibiting HIV replication. Pre-freeze sperm motility was determined for each sample prior to initiating the cooling step of the freezing procedure. Samples in the control and treatment group were cooled for 24 hours to slow the HU-induced vigorously motile cells in the treatment group. Subsequently, post cooling motility was determined prior to liquid nitrogen vapor phase freezing for 30 minutes before being stored immersed in liquid nitrogen (LN) for at least 24 hours before being thawed for analysis. Samples were thawed at room temperature for 35 minutes prior to motility analysis.

[4] = system: human spermatozoa in semen samples; test: Post-cool and post-thaw sperm motility after cryopreservation in freezing buffer with HU (Working Example 4); format: cell-based; conditions: FB+HU, final HU 1 μM, listed as HU
Procedure: as §2, with “half” for “half was”, “6%” for “6%,”, “arm” for “step”, “HU induced” for “HU-induced”, “LN” for “liquid nitrogen (LN)”, “Samples were thawed at room temperature for 35 minutes prior to motility analysis.” left out

rats [5] = conditions: single dose; cited from earlier work
rats [6] = test: Oral LD50 in rats; conditions: rat oral LD50 divided by 1000

NC(=O)NO [hydroxyurea, Hydroxyurea]
overall percentage motility (progressively + hyperactively motile spermatozoa) (human sperm [1]; 5.0% CO2, 24 hours, control 75.4): 79.0%
hyperactive motility (human sperm [1]; 24 hours, control 23.0): 41.3%
progressive sperm motility (human sperm [1]; 24 hours, control 51.7±10.2): 37.7%
overall motility (human sperm [2]; 1.0 mM HU): 66.6
overall motility (human sperm [2]; 2.0 mM HU): 68.3
level of overall spermatozoa with motility (FIGS. 2A-2H) ([3]; HU treated, video stills over about 9 seconds, control low level): moderate to high level
motility maintained of the initial population of motile spermatozoa (pre-freeze) ([3]; freezing medium supplemented with HU, control 28-45%): 76-84%
longevity among post-thaw spermatozoa versus control group ([3]; frozen in FB+HU, post-thaw): higher
mean of the post-cool motility relative to post cool motility (survival of cooling process in percentage) ([3]; mean of seven HU treated samples, control 50.71): 71.91%
Post-thaw Motility (HU; %) ([4]; liquid nitrogen at least 24 hours, thawed 35 minutes at room temperature, first figure of cell): 44% and 50% and 32%
Post-thaw Survival Relative to Post-cool Motility (HU; %) ([4]; post-thaw, second figure of cell): 71% and 76% and 49%
oral LD50 (rats [5]): 5780 mg/kg
maximum effective dose (rough maximum safe dose for humans) (rats [6]): ≤ 5.78 mg/kg
